For 23 compounds, IC50 results are on record in patent US9707233B2, “Heterocyclylamines as PI3K inhibitors” (Incyte Corporation, priority 2011, dated 2017).

The target in the assay is PI3Kδ (p110δ/p85α) (Homo sapiens (Human), UniProt O00329). The experiment in a line: PI3Kδ scintillation proximity assay (Example A3). In kind it is biochemical. The note with it: 20 μM ATP, 20 μM PIP2, 4 nM PI3Kδ; read-out: PI3Kδ SPA IC50. The protocol: [γ-^33P]ATP (10 mCi/mL) was purchased from Perkin-Elmer (Waltham, Mass.). […] PI3Kδ (p110δ/p85α) was purchased from Millipore (Bedford, Mass.). ATP, MgCl2, DTT, EDTA, MOPS and CHAPS were purchased from Sigma-Aldrich (St. Louis, Mo.). Wheat Germ Agglutinin (WGA) YSi SPA Scintillation Beads was purchased from GE healthcare life sciences (Piscataway, N.J.).
The kinase reaction was conducted in polystyrene 384-well matrix white plate from Thermo Fisher Scientific in a final volume of 25 μL. Inhibitors were first diluted serially in DMSO and added to the plate wells before the addition of other reaction components. The final concentration of DMSO in the assay was 0.5%. The PI3K assays were carried out at room temperature in 20 mM MOPS, pH 6.7, 10 mM MgCl2, 5 mM DTT and CHAPS 0.03%. Reactions were initiated by the addition of ATP, the final reaction mixture consisted of 20 μM PIP2, 20 μM ATP, 0.2 μCi [γ-^33P]ATP, 4 nM PI3Kδ. […] 25 mM EDTA, 400 μM ATP. The final concentration of SPA beads was 1.0 mg/mL. After the plate sealing, plates were shaken overnight at room temperature and centrifuged at 1800 rpm for 10 minutes, the radioactivity of the product was determined by scintillation counting on Topcount (Perkin-Elmer). IC50 determination was performed by fitting the curve of percent control activity versus the log of the inhibitor concentration using the GraphPad Prism 3.0 software.
In general terms: Scintillation proximity formats need no separation of bound from free tracer.

Sequence of PI3Kδ (p110δ/p85α) (O00329 whole entry): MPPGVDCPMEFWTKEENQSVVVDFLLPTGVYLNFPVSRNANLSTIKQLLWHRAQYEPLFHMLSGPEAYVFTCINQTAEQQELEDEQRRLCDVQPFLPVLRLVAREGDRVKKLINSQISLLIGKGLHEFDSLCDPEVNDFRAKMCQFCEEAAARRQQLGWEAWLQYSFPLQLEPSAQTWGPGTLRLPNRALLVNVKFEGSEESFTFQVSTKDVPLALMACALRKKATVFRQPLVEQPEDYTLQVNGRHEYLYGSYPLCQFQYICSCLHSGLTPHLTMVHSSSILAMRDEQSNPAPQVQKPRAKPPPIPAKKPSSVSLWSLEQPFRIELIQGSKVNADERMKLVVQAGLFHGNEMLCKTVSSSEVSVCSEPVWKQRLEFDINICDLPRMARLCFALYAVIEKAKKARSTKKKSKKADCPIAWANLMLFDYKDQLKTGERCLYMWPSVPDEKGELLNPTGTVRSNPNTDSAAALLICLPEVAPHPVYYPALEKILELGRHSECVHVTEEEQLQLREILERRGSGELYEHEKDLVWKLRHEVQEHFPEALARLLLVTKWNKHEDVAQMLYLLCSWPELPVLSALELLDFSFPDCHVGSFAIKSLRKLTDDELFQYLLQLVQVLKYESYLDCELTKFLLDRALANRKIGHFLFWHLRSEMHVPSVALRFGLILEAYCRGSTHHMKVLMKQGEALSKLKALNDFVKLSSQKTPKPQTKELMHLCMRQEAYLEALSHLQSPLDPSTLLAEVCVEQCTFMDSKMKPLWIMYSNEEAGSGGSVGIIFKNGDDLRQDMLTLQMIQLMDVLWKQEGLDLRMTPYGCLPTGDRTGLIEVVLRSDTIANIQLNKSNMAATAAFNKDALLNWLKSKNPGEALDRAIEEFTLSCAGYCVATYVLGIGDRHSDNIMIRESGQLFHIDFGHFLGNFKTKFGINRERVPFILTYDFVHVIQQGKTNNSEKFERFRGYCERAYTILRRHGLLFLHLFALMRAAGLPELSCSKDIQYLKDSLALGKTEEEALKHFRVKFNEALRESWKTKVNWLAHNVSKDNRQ
Sequence of PI3Kδ (p110δ/p85α) (P27986 whole entry partner): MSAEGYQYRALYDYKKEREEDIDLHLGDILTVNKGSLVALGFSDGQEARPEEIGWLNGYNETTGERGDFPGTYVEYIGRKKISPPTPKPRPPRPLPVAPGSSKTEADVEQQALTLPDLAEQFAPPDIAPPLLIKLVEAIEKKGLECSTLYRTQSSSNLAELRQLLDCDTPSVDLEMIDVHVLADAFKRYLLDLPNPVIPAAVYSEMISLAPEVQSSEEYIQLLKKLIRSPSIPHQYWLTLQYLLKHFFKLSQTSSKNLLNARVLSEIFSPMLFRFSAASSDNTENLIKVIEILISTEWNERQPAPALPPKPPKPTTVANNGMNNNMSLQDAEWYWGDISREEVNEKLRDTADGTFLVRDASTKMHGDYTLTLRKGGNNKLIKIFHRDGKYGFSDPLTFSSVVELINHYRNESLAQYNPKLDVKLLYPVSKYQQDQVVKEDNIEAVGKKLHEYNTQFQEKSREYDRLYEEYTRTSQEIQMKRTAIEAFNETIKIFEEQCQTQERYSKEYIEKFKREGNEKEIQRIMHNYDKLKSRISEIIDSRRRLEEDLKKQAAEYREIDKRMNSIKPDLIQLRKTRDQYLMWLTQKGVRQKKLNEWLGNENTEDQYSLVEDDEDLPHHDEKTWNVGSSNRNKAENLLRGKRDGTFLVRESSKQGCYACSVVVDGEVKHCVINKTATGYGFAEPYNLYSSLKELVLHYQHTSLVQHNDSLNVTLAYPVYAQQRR

With “2-(4-(3-(1-(4-Amino-3-methyl-1H-pyrazolo[3,4-d]pyrimidin-1-yl)ethyl)-5-chloro-2-ethoxy-6-methylphenyl)-1H-pyrazol-1-yl) acetamide [Example 203]”, the IC50 (commonly the concentration at which inhibition is half-maximal) is ≤ 10 nM.
The value for `COc1c(C(C)n2nc(C)c3c(N)ncnc32)cc(Cl)c(C)c1C1CN(CC2CC2)C1` (racemic) [Example 4, 1-(1-{5-Chloro-3-[1-(cyclopropylmethyl)azetidin-3-yl]-2-methoxy-4-methylphenyl}ethyl)-3-methyl-1H-pyrazolo[3,4-d]pyrimidin-4-amine bis(trifluoroacetate)] was ≤ 10 nM; that for `COc1c(C(C)n2nc(C)c3c(N)ncnc32)cc(Cl)c(C)c1-c1ccnc(C(=O)N(C)CCO)c1` (racemic) [Example 19, 4-{3-[1-(4-amino-3-methyl-1H-pyrazolo[3,4-d]pyrimidin-1-yl)ethyl]-5-chloro-2-methoxy-6-methylphenyl}-N-(2-hydroxyethyl)-N-methylpyridine-2-carboxamide] was ≤ 10 nM; that for `COc1c(C(C)n2ccc(=O)c3c(N)ncnc32)cc(Cl)c(C)c1-c1cncc(S(C)(=O)=O)c1` (racemic) [Example 26, 4-Amino-8-(1-{5-chloro-2-methoxy-4-methyl-3-[5-(methylsulfonyl)pyridin-3-yl]phenyl}ethyl)pyrido[2,3-d]pyrimidin-5(8H)-one bis(trifluoroacetate)] was ≤ 10 nM.
The result for `COc1c(C(C)n2ccc(=O)c3c(N)ncnc32)cc(Cl)c(C)c1-c1cncc(C#N)c1` (racemic) [Example 27, 5-{3-[1-(4-Amino-5-oxopyrido[2,3-d]pyrimidin-8(5H)-yl)ethyl]-5-chloro-2-methoxy-6-methylphenyl}nicotinonitrile bis(trifluoroacetate)] reads ≤ 10 nM; that for `COc1c(C(C)n2ccc(=O)c3c(N)ncnc32)cc(Cl)c(C)c1-c1cncnc1` (racemic) [Example 29, 4-Amino-8-[1-(5-chloro-2-methoxy-4-methyl-3-pyrimidin-5-ylphenyl)ethyl]pyrido[2,3-d]pyrimidin-5(8H)-one bis(trifluoroacetate)], ≤ 10 nM; that for `COc1c(C(C)n2ccc(=O)c3c(N)ncnc32)cc(Cl)c(C)c1-c1cccc(C(=O)N(C)C)c1` (racemic) [Example 30, 3′-[1-(4-Amino-5-oxopyrido[2,3-d]pyrimidin-8(5H)-yl)ethyl]-5′-chloro-2′-methoxy-N,N,6′-trimethylbiphenyl-3-carboxamide bis(trifluoroacetate)], ≤ 10 nM.
On to `COc1c(C(C)n2ccc(=O)c3c(N)ncnc32)cc(Cl)c(C)c1-c1cncc(F)c1` (racemic) [Example 31, 4-Amino-8-{1-[5-chloro-3-(5-fluoropyridin-3-yl)-2-methoxy-4-methylphenyl]ethyl}pyrido[2,3-d]pyrimidin-5(8H)-one bis(trifluoroacetate)], for which the 50% inhibitory concentration (IC50) was ≤ 10 nM.
The result for `COc1c(C(C)n2ccc(=O)c3c(N)ncnc32)cc(Cl)c(C)c1-c1cccc(S(=O)(=O)N(C)C)c1` (racemic) [Example 32, 3′-[1-(4-Amino-5-oxopyrido[2,3-d]pyrimidin-8(5H)-yl)ethyl]-5′-chloro-2′-methoxy-N,N,6′-trimethylbiphenyl-3-sulfonamide bis(trifluoroacetate)] reads ≤ 10 nM; that for `CNC(=O)c1ccc(-c2c(C)c(Cl)cc(C(C)n3ccc(=O)c4c(N)ncnc43)c2OC)cn1` (racemic) [Example 33, 5-{3-[1-(4-amino-5-oxopyrido[2,3-d]pyrimidin-8(5H)-yl)ethyl]-5-chloro-2-methoxy-6-methylphenyl}-N-methylpyridine-2-carboxamide bis(trifluoroacetate)], ≤ 10 nM; that for `CCOc1c(C(C)n2ccc(=O)c3c(N)ncnc32)cc(Cl)c(C)c1C1CN(C(C)C)C1` (racemic) [Example 35, 4-Amino-8-{1-[5-chloro-2-ethoxy-3-(1-isopropylazetidin-3-yl)-4-methylphenyl]ethyl}pyrido[2,3-d]pyrimidin-5(8H)-one bis(trifluoroacetate)], ≤ 10 nM.
As to `COc1c(C(C)n2ncc3c(N)ncnc32)cc(Cl)c(C)c1-c1ccnc(C(=O)N(C)C)c1` (racemic) [Example 38, 4-{3-[1-(4-amino-1H-pyrazolo[3,4-d]pyrimidin-1-yl)ethyl]-5-chloro-2-methoxy-6-methylphenyl}-N,N-dimethylpyridine-2-carboxamide], the IC50 lay within 10 to 50 nM.
Consider `COc1c(C(C)n2ncc3c(N)ncnc32)cc(Cl)c(C)c1-c1ccnc(C(=O)NCCO)c1` (racemic) [Example 39, 4-{3-[1-(4-amino-1H-pyrazolo[3,4-d]pyrimidin-1-yl)ethyl]-5-chloro-2-methoxy-6-methylphenyl}-N-(2-hydroxyethyl)pyridine-2-carboxamide], for which the IC50 lay within 50 to 200 nM.
`COc1c(C(C)n2nc(C)c3c(N)ncnc32)cc(C#N)c(C)c1-c1ccnc(C(=O)N(C)CCO)c1` (racemic) [Example 40, 4-{3-[1-(4-amino-3-methyl-1H-pyrazolo[3,4-d]pyrimidin-1-yl)ethyl]-5-cyano-2-methoxy-6-methylphenyl}-N-(2-hydroxyethyl)-N-methylpyridine-2-carboxamide]: the IC50 was in the range of 10 to 50 nM.
The result for `COc1c(C(C)n2nc(C)c3c(N)nccc32)cc(Cl)c(C)c1-c1ccc(C(=O)N(C)C)nc1` (racemic) [Example 41, 5-{3-[1-(4-Amino-3-methyl-1H-pyrazolo[4,3-c]pyridin-1-yl)ethyl]-5-chloro-2-methoxy-6-methylphenyl}-N,N-dimethylpyridine-2-carboxamide bis(trifluoroacetate)] reads 50 to 200 nM; that for `CCOc1c(C(C)n2nc(-c3cccc(F)c3)c3c(N)ncnc32)cc(Cl)c(C)c1-c1ccc(C(=O)N(C)C)nc1` (racemic) [Example 47, 5-(3-{1-[4-amino-3-(3-fluorophenyl)-1H-pyrazolo[3,4-d]pyrimidin-1-yl]ethyl}-5-chloro-2-ethoxy-6-methylphenyl)-N,N-dimethylpyridine-2-carboxamide bis(trifluoroacetate)], ≤ 10 nM.
For `CCOc1c(C(C)n2nc(-c3cn[nH]c3)c3c(N)ncnc32)cc(Cl)c(C)c1-c1ccc(C(=O)N(C)C)nc1` (racemic) [Example 48, 5-(3-{1-[4-amino-3-(1H-pyrazol-4-yl)-1H-pyrazolo[3,4-d]pyrimidin-1-yl]ethyl}-5-chloro-2-ethoxy-6-methylphenyl)-N,N-dimethylpyridine-2-carboxamide bis(trifluoroacetate)], the IC50 was ≤ 10 nM.
As to `CCOc1c(C(C)n2nc(-c3cnn(C)c3)c3c(N)ncnc32)cc(Cl)c(C)c1-c1ccc(C(=O)N(C)C)nc1` (racemic) [Example 49, 5-(3-{1-[4-amino-3-(1-methyl-1H-pyrazol-4-yl)-1H-pyrazolo[3,4-d]pyrimidin-1-yl]ethyl}-5-chloro-2-ethoxy-6-methylphenyl)-N,N-dimethylpyridine-2-carboxamide bis(trifluoroacetate)], the IC50 was ≤ 10 nM.
The result for `CCOc1c(C(C)n2nc(-c3cc[nH]n3)c3c(N)ncnc32)cc(Cl)c(C)c1-c1ccc(C(=O)N(C)C)nc1` (racemic) [Example 51, 5-(3-{1-[4-amino-3-(1H-pyrazol-3-yl)-1H-pyrazolo[3,4-d]pyrimidin-1-yl]ethyl}-5-chloro-2-ethoxy-6-methylphenyl)-N,N-dimethylpyridine-2-carboxamide bis(trifluoroacetate)] reads ≤ 10 nM.
The value for `CCOc1c(C(C)n2nc(C3CC3)c3c(N)ncnc32)cc(Cl)c(C)c1-c1ccc(C(=O)N(C)C)nc1` (racemic) [Example 53, 5-{3-[1-(4-amino-3-cyclopropyl-1H-pyrazolo[3,4-d]pyrimidin-1-yl)ethyl]-5-chloro-2-ethoxy-6-methylphenyl}-N,N-dimethylpyridine-2-carboxamide bis(trifluoroacetate)] was ≤ 10 nM; that for `CCOc1c(C(C)n2nc(C#N)c3c(N)ncnc32)cc(Cl)c(C)c1-c1ccc(C(=O)N(C)C)nc1` (racemic) [Example 54, 5-{3-[1-(4-amino-3-cyano-1H-pyrazolo[3,4-d]pyrimidin-1-yl)ethyl]-5-chloro-2-ethoxy-6-methylphenyl}-N,N-dimethylpyridine-2-carboxamide] was 10 to 50 nM.
The result for `CCOc1c(C(C)n2nc(-c3ccc(F)cc3)c3c(N)ncnc32)cc(Cl)c(C)c1-c1ccc(C(=O)N(C)C)nc1` (racemic) [Example 55, 5-(3-{1-[4-amino-3-(4-fluorophenyl)-1H-pyrazolo[3,4-d]pyrimidin-1-yl]ethyl}-5-chloro-2-ethoxy-6-methylphenyl)-N,N-dimethylpyridine-2-carboxamide bis(trifluoroacetate)] reads 10 to 50 nM; that for `CCOc1c(C(C)n2nc(-c3ccc(C(=O)N(C)C)nc3)c3c(N)ncnc32)cc(Cl)c(C)c1-c1ccc(C(=O)N(C)C)nc1` (racemic) [Example 56, 5-{4-amino-1-[1-(5-chloro-3-{6-[(dimethylamino)carbonyl]pyridin-3-yl}-2-ethoxy-4-methylphenyl)ethyl]-1H-pyrazolo[3,4-d]pyrimidin-3-yl}-N,N-dimethylpyridine-2-carboxamide tris(trifluoroacetate)], 10 to 50 nM.
